Test results reported in patent US20090028925A1, “Novel Phosphinic Acid-Containing Thyromimetics” (priority 2005, published 2009).

Key:
[1] = biological target: T1, human thyroid hormone receptors TRβ1 (Homo sapiens, UniProt P10828); test: Receptor binding to TRβ1 (gel filtration and scintillation proximity assay, labeled T3); conditions: SPA data; read-out: Ki TRβ
T1 construct: made in house; host or cells: Sf9 insect cells (baculovirus)
T1 sequence (P10828 1-461): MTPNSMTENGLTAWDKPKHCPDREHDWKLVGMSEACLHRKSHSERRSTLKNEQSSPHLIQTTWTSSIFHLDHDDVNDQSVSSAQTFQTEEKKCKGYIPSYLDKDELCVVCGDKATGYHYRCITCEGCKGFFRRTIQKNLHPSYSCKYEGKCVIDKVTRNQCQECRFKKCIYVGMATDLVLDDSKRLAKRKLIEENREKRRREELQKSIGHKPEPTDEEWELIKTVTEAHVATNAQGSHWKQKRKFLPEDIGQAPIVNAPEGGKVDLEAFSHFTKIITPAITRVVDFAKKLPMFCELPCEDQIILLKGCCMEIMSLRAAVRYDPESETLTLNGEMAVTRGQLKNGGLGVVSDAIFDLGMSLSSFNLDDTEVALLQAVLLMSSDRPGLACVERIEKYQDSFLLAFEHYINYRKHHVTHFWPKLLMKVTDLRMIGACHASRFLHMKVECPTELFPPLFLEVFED
T1 sequence (P19793 1-462 partner): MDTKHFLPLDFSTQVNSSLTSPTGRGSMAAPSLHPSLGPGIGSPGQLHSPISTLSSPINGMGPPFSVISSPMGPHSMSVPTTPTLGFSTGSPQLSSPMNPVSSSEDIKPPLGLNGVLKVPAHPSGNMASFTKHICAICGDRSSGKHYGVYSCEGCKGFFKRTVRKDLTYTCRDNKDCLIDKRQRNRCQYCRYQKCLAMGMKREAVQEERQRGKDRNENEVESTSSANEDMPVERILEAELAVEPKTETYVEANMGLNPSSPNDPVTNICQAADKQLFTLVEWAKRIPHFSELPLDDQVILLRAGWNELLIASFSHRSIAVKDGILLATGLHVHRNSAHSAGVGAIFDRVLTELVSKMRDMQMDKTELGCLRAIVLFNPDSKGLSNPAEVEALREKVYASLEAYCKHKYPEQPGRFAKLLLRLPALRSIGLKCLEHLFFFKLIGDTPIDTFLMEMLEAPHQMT

plasma cholesterol = test: Cholesterol lowering in hypercholesterolemic rats; format: in vivo; conditions: hypercholesterolemic rats, 0.5 mg/kg/d orally
[2] = system: CYP3A (cytochrome P450-3A (CYP3A4)); test: Prodrug activation in rat liver microsomes; format: in vitro ADME; conditions: liver microsomes from dexamethasone-treated rats; dexamethasone treated rat microsomes, formation of Compound 7
Text: (§1) The purpose of these studies was to determine the kinetics of activation of prodrugs of thyromimetics in microsomal preparations. Microsomes contain the P450 enzyme that is required for the activation of many of the prodrugs prepared. The Km, Vmax, and intrinsic clearance values determined are measures of prodrug affinity for the microsomal enzymes, the rate at which the prodrug is activated, and the catalytic efficiency with which the prodrug is activated, respectively.
(§2) Methods: Activation of prodrugs by dexamethasone treated rat hepatocyte microsomes. Microsomes were isolated by standard differential centrifugation methods from dexamethasone-treated rats. The treatment is to increase cytochrome P450-3A (CYP3A4) activity. Induction of CYP3A4 was confirmed by an increase in testosterone hydroxylation.
(§3) Various concentrations of HepDirect™ Compound 7 were incubated with rat hepatocytes microsomes. Compound 7 formation was analyzed by HPLC using UV-Vis detection. Kinetic parameters (Vmax and Km) were calculated from the transformed data and the intrinsic clearance calculated from the kinetic parameters.

[3] = Prodrug activation in rat liver microsomes; format: in vitro ADME
Text: as §1, §2, §3

serum cholesterol = test: Subacute study in cholesterol fed rats, PO: serum cholesterol; format: in vivo; conditions: PO once a day for seven days
Experimental: (§4) Methods: […] Compound 13-1-cis and Compound 18 were administered PO once a day for seven days. Serum TSH is measured using an enzyme immunoassay (EIA) kit designed for rat TSH (Amersham Pharmacia Biotech, Arlington Heights, Ill.). Expression levels of liver genes (e.g., the LDL-receptor, apoB, cpt-1, spot14 and apoAI) and heart genes ([…]2, HCN2, Kv1.5, MHCα, MHCβ, Alpha1c) are quantified by Northern blot analysis or by RT-PCR. For Northern analyses, RNA is isolated from liver tissue by a guanidinium thiocyanate method, and total RNA is obtained using an RNeasy column (Quiagen). mRNA is separated on a 1% agarose gel and transferred to a nylon membrane. Oligonucleotides specific for the complementary gene sequences are used to make ^32P-labeled probes (Multiprime DNA labeling systems, Amersham Pharmacia Biotech). Following hybridization of the probes to the nylon membranes, radioactivity is assessed on a blue film (Eastman Kodak Co), and the resulting image quantified using the appropriate software. RT-PCR is performed using an iCycler instrument (Biorad) using appropriate primers by means of standard methodology [[…] et al. (2000) Life Sciences 66: 1683-94]. GPDH activity in liver and heart are measured as described in Example B. […] Alternatively, expression levels of the corresponding genes are determined by Northern blot analysis or RT-PCR as described above.

[4] = biological target: T2, human thyroid hormone receptors TRα1 (Homo sapiens, UniProt P10827); test: Receptor binding to TRα1 (gel filtration and scintillation proximity assay, labeled T3); conditions: SPA data; read-out: Ki TRα
T2 construct: made in house; host or cells: Sf9 insect cells (baculovirus)
T2 sequence (P10827 1-410 isoform P10827-2): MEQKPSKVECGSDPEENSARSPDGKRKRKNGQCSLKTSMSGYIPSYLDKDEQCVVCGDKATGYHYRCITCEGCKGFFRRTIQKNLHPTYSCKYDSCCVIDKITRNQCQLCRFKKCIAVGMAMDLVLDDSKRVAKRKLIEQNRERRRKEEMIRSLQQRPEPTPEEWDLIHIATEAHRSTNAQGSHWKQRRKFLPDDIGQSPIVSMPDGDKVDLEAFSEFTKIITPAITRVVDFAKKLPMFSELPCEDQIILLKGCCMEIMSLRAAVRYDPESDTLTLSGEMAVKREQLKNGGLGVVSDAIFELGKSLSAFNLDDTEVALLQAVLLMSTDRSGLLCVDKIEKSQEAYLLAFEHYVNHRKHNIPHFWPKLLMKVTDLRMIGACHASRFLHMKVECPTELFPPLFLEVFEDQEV
T2 sequence (P19793 1-462 partner): T1 sequence (P19793 1-462 partner)

[5] = Subacute study in cholesterol fed rats, PO: heart weight; format: in vivo; conditions: PO seven days, any dose tested
Experimental: as §4

[6] = ZDF, rat, in vivo, po, 28 days
Experimental: Compound 18 was administered at doses up to 5 mg/kg/d. Compound cis-13-1 was administered at doses up to 50 mg/kg/d. We reasoned that the ZDF rat, as a metabolically challenged animal model, would be more sensitive to the potential adverse cardiac effects of thyromimetics than a normal, cholesterol-fed rat. At sacrifice, heart rate, and the first derivative of left ventricular pressure (LV dP/dt) were measured with a Millar catheter inserted into the left ventricle.

[7] = cholesterol-fed rat; cited from earlier work
[8] = Cardiovascular activity in the Sprague Dawley rat (HR, LV dP/dt, aortic pressure, heart weight); format: in vivo; conditions: SD rats, 1 mg/kg p.o., 7 days
Text: Method: […] The control group (n=6) was given vehicle only. […] On the 7th day after the start of dosing, animals were anesthetized with Isofluorane and the left ventricle cannulated with a high fidelity catheter tip transducer via the right carotid artery. Left ventricular pressure, its first derivative (LVdP/dt), lead I ECG, and heart rate (HR) triggered off the ECG waveform, were digitally recorded. LV dP/dt is a well accepted measure of ionotropic state. Systolic and diastolic aortic pressures were measured by retracting the catheter into the proximal aorta.

[9] = system: thyroid stimulating hormone (TSH); test: Circulating TSH in rats (cholesterol-fed, ZDF); format: in vivo
Experimental: Methods: mGPDH activity was analyzed in isolated mitochondria using 2-(4-iodophenyl)-3-(4-nitrophenyl)-5-phenyl tetrazolium chloride as the terminal electron acceptor (Gardner R S, Analytical Biochemistry 59:272 (1974)). Commercially available GPDH was used in each assay as a standard (Sigma, St. Louis, Mo.). Changes in levels of mRNA for liver and heart genes are analyzed using reverse transcriptase followed by real-time PCR analysis. The analysis is performed using an iCycler instrument (Biorad) and appropriate primers by means of standard methodology [e.g., Schwab D A et al. (2000) Life Sciences 66: 1683-94]. The amounts of mRNA are normalized to an internal control, typically, cyclophilin. Serum TSH is measured using an enzyme immunoassay (EIA) kit designed for rat TSH (Amersham Pharmacia Biotech, Arlington Heights, Ill.).
Another concern with synthetic thyromimetics is the suppression of the endogenous thyroid axis. Thyroid homeostasis is maintained by the action of thyroid releasing hormone (TRH) and thyroid stimulating hormone (TSH). […] Although this particular side effect has been noted, it has typically been treated with less concern than the cardiac safety issues. […] Therefore previous investigators have measured TSH levels when testing synthetic thyromimetics and have used a 30% decrease of TSH as the denominator in their therapeutic index calculations. […] Therefore, both compounds suppress TSH as doses lower than that required to decrease circulating cholesterol. […] However, 0.2 mg/kg/d of Compound 18 in 28 day treated ZDF rats, decreased TSH levels greater than 90%.

Ki [1] [nM] | Km [2] [µM] | microsomal CLint ([3]; rat, liver microsomes from dexamethasone-treated rats, intrinsic clearance calculated from the kinetic parameters) [µL/min/mg] | Ki [4] [nM] | TI for LV dP/dt (increase of 25%) [6] | decrease of TSH levels ([9]; ZDF rats, 0.2 mg/kg/d, 28 day) | SMILES | cholesterol lowering (plasma cholesterol) | Vmax ([3]; dexamethasone treated rat microsomes, formation of Compound 7) [pmol/min/mg] | doses that significantly decreased serum cholesterol (serum cholesterol) [mg/kg/day] | cardiac hypertrophy [5] | therapeutic index with respect to heart rate (ED15 HR/ED50 cholesterol) [6] | therapeutic index (TI) with respect to heart rate increases (ED15 HR/ED50 cholesterol) [7] | HR, LV dP/dt, and systolic aortic pressure [8] | Heart weight and heart weight normalized to body weight [8] | therapeutic index of TSH levels (30% decrease of TSH) ([9]; cholesterol-fed rats, treated for 7 days)
1980 | 31 | 56 | 2580 |  |  | Cc1cc(OC[P@@]2(=O)OCC[C@@H](c3cccc(Cl)c3)O2)cc(C)c1Cc1ccc(O)c(C(C)C)c1 [Compound 13-1-cis, Cis(S)-2-[(3,5-Dimethyl-4-(4′-hydroxy-3′-iso-propylbenzyl)phenoxy)methyl]-4-(3-Chlorophenyl)-2-oxo-2λ^5-[1,3,2]-dioxaphosphinane] | demonstrated a significant lowering of cholesterol | 1746 | 0.6 to 50 | No significant undesirable cardiac hypertrophy was observed |  |  |  |  | 
 |  |  |  | 0.15 | greater than 90% | CC(C)c1cc(Oc2c(Cl)cc(CC(=O)O)cc2Cl)ccc1O [Compound 18, 3,5-dichloro-4-[4′-hydroxy-3′-iso-propylphenoxy]benzeneacetic acid, reference compound] |  |  | 1 |  | 0.4 | 40 | marked and statistically significant increases | significantly increased | 0.4
